Patent publication US20120004282A1, “RNA Interference Mediated Inhibition of the Intercellular Adhesion Molecule 1 (ICAM-1) Gene Expression Using Short Interfering Nucleic Acid (siNA)” (Merck Sharp & Dohme Corp,, priority 2009, published 2012)
[invAb] = inverted abasic unit; m = 2'-O-methyl; r = 2'-OH (RNA); f = 2'-fluoro

Tests used:
ICAM-1 mRNA = ICAM-1 mRNA knock-down in transfected Calu-1 cells (Taqman RT-PCR); type: cell-based, human; conditions: for % KD Human: Calu-1 cells, 10 nM siNA, 24 hrs post-transfection, relative to non-targeting control; for % KD Human / % KD ICAM-1 10 nM / % KD at 10 nM / Max % KD in DRC: mean ± S.D.; for IC50: ICAM-1 mRNA knockdown, 12 concentrations 0.083 fM to 30 nM; for IC50 / % KD at 10 nM / Max % KD in DRC: human cells; for % KD ICAM-1 10 nM / % KD at 10 nM / Max % KD in DRC: ICAM-1 mRNA; for % KD ICAM-1 10 nM: three independent experiments; for % KD at 10 nM: three separate experiments; for Max % KD in DRC: dose response 0.083 fM to 30 nM
OAS1 mRNA = experiment: Endosomal TLR3 mediated immunostimulation, OAS1 mRNA increase in NHBE cells; type: cell-based, human; conditions: Up to 100 nM, siNA formulated with delivery vehicle
Description: A series of probes and primers were used for the detection of mRNA transcripts of ICAM-1, OAS1, and GAPDH (as control/normalisation) in the human cell lines. The assays were performed on an ABI 7900HT instrument according to the manufacturer's instructions.
With TaqMan data, critical threshold values (Ct) were converted to copy numbers corresponding to the particular gene analysed in each well of the 384 well plate. Six identical wells were prepared in each plate for a given treatment. […] Determination of the percentage coefficient of variation (CV) (% C.V.=[standard deviation/average]*100) allowed the omitting of wells whose value was an outlier (so that % C.V.<25). Relative abundance (aka relative expression) of a gene was determined by dividing the mean copy number of that gene with its GAPDH counterpart in that particular sample.
Calu-1 or NHBE cell were treated as above in Example 2 and used for the measurement of endosomal TLR3 mediated immunostimulation, with the inclusion of polyI:C as a positive control for OAS1 mRNA upregulation. For the measurement of membrane bound TLR3 mediated immunostimulation the Calu 1 cells were cultured at 12000 cells/per 96 well and siNAs administered in PBS in the absence of a delivery vehicle at a concentration of 100 nM, 30 nM, 10 nM, 3 nM, 1 nM, and 0.3 nM.
The endosomal TLR3 mediated immunostimulation was also measured by recording the percent increase in OAS1 mRNA levels when the NHBE cells were transfected with the siNAs that had been formulated with the delivery vehicle (the Gemini surfactant GSC170 Dab—example 37 in WO03/82809) (percent increase in OAS1 mRNA levels relative to the Gemini delivery vehicle control). The TLR3 agonist Poly I: C is used as a positive control for OAS1 mRNA induction.

Substance	% KD Human (ICAM-1 mRNA)	IC50 (ICAM-1 mRNA)	% KD ICAM-1 10 nM (ICAM-1 mRNA)	% KD at 10 nM (ICAM-1 mRNA)	Max % KD in DRC (ICAM-1 mRNA)	Endosomal TLR3 mediated Immunostimulation OAS1 mRNA increase NHBE cells n = 3donors (OAS1 mRNA)
29282-DC: siNA duplex, ICAM-1 target site 2113 (h); sense B cGcAucuGAucuGuAGucA TTB; antisense UGAcuAcAGAucAGAuGcGUU (sense CGCAUCUGAUCUGUAGUCATT; antisense UGACUACAGAUCAGAUGCGUU; sense: DNA at AGT, 2'-fluoro at CU, [invAb] at 5' end, 3' end, backbone not given here; antisense: sugars from the 5' end rrrffmfmmmffmmmfmfmmm, backbone not given here)	95 ± 2%	0.086 ± 0.047 nM	95 ± 2%	95 ± 2%	88 ± 4%	No significant effect
29284-DC: siNA duplex, ICAM-1 target site 1141 (h); sense B cucAGucAGuGuGAccGcA TTB; antisense UGCGGucAcAcuGAcuGAGUU (sense CUCAGUCAGUGUGACCGCATT; antisense UGCGGUCACACUGACUGAGUU; sense: DNA at AGT, 2'-fluoro at CU, [invAb] at 5' end, 3' end, backbone not given here; antisense: sugars from the 5' end rrrmmffmfmffmmffmmmmm, backbone not given here)	85 ± 1%	0.281 ± 0.233 nM	85 ± 1%	85 ± 1%	73 ± 4%	No significant effect
29285-DC: siNA duplex, ICAM-1 target site 537 (h); sense B GGAAcAAccGGAAGGuGuA TTB; antisense UACAccuuccGGuuGuuccUU (sense GGAACAACCGGAAGGUGUATT; antisense UACACCUUCCGGUUGUUCCUU; sense: DNA at AGT, 2'-fluoro at CU, [invAb] at 5' end, 3' end, backbone not given here; antisense: sugars from the 5' end rrrmffffffmmffmffffmm, backbone not given here)	85 ± 6%	0.394 nM	85 ± 6%	85 ± 6%	70 ± 15%	No significant effect
29286-DC: siNA duplex, ICAM-1 target site 1838 (h); sense B cGGAAGAucAAGAAAuAcA TTB; antisense UGUAuuucuuGAucuuccGUU (sense CGGAAGAUCAAGAAAUACATT; antisense UGUAUUUCUUGAUCUUCCGUU; sense: DNA at AGT, 2'-fluoro at CU, [invAb] at 5' end, 3' end, backbone not given here; antisense: sugars from the 5' end rrrmffffffmmffffffmmm, backbone not given here)	89 ± 3%	0.433 ± 0.468 nM	89 ± 3%	89 ± 3%	81 ± 6%	No significant effect
29288-DC: siNA duplex, ICAM-1 target site 2046 (h); sense B cAuuGuccucAGucAGAuA TTB; antisense UAUcuGAcuGAGGAcAAuGUU (sense CAUUGUCCUCAGUCAGAUATT; antisense UAUCUGACUGAGGACAAUGUU; sense: DNA at AGT, 2'-fluoro at CU, [invAb] at 5' end, 3' end, backbone not given here; antisense: sugars from the 5' end rrrffmmffmmmmrfmmfmmm, backbone not given here)	86 ± 3%	0.215 ± 0.129 nM	86 ± 3%	86 ± 3%	78 ± 5%	No significant effect
48722-DC: siNA duplex, ICAM-1 target site 2240 (h); sense B GAcAuAcAAcuGGGAAAuA TTB; antisense UAUuucccAGuuGuAuGucUU (sense GACAUACAACUGGGAAAUATT; antisense UAUUUCCCAGUUGUAUGUCUU; sense: DNA at AGT, 2'-fluoro at CU, [invAb] at 5' end, 3' end, backbone not given here; antisense: sugars from the 5' end rrrfffffmmffmfmfmffmm, backbone not given here)	92 ± 1%	0.098 ± 0.05 nM	92 ± 1%	92 ± 1%	85 ± 1%	No significant effect
